Tested on: soybean cultivars L2711R2X, L3385R2
Assay: Field 2012: 2,4-D Low Vol 4 + crop oil drizzled onto soil at R1 stage, Laurel, Iowa (Table 2b)
Type: in vivo
Settings: 1X~0.45 lb a.e.
Description: Plants were treated by drizzling via low pressure spraying the 2,4-D solution onto the soil along each side of the rows when plants are at the R1 stage of growth. The date of planting was May 15, 2012 and the date of harvest was Oct. 2, 2012 at plots in Alexander, Iowa (Table 2a) and Laurel, Iowa (Table 2b). Plants were grown from Roundup Ready seed and were sprayed with glyphosate for weed control. Plants were treated with between 1X and 5.5X of 2,4-D solution mixed with crop oil at 15.3 ounces of 2,4-D Low Vol 4 plus 0.32 ounces crop oil per gallon, where 1X is equivalent to approximately 0.45 pounds acid equivalent of 2,4-D. Two repetitions were performed at different plots. […] The moisture percentages were used in correcting each yield to a 13% moisture basis.

O=C(O)COc1ccc(Cl)cc1Cl [2,4-D, 2,4-Dichlorophenoxyacetic acid]
Average Yield (1.0X Rate, L2711R2X): 64.93 Bu/A
Repetition 1 Weight (1.0X Rate, L2711R2X): 5.6 Lbs
Repetition 1 Yield (1.0X Rate, L2711R2X): 62.69 Bu/A
Repetition 2 Weight (1.0X Rate, L2711R2X): 6.0 Lbs
Repetition 2 Yield (1.0X Rate, L2711R2X): 67.16 Bu/A
Average Yield (1.0X Rate, L3385R2): 72.50 Bu/A
Repetition 1 Weight (1.0X Rate, L3385R2): 6.7 Lbs
Repetition 1 Yield (1.0X Rate, L3385R2): 73.40 Bu/A
Repetition 2 Weight (1.0X Rate, L3385R2): 6.5 Lbs
Repetition 2 Yield (1.0X Rate, L3385R2): 71.60 Bu/A
Average Yield (1.5X Rate, L2711R2X): 67.20 Bu/A
Repetition 1 Weight (1.5X Rate, L2711R2X): 6.6 Lbs
Repetition 1 Yield (1.5X Rate, L2711R2X): 73.88 Bu/A
Repetition 2 Weight (1.5X Rate, L2711R2X): 5.4 Lbs
Repetition 2 Yield (1.5X Rate, L2711R2X): 60.51 Bu/A
Average Yield (1.5X Rate, L3385R2): 75.70 Bu/A
Repetition 1 Weight (1.5X Rate, L3385R2): 6.8 Lbs
Repetition 1 Yield (1.5X Rate, L3385R2): 74.34 Bu/A
Repetition 2 Weight (1.5X Rate, L3385R2): 6.9 Lbs
Repetition 2 Yield (1.5X Rate, L3385R2): 77.07 Bu/A
Average Yield (2.0X Rate, L2711R2X): 63.41 Bu/A
Repetition 1 Weight (2.0X Rate, L2711R2X): 5.7 Lbs
Repetition 1 Yield (2.0X Rate, L2711R2X): 64.01 Bu/A
Repetition 2 Weight (2.0X Rate, L2711R2X): 5.6 Lbs
Repetition 2 Yield (2.0X Rate, L2711R2X): 62.82 Bu/A
Average Yield (2.0X Rate, L3385R2): 70.93 Bu/A
Repetition 1 Weight (2.0X Rate, L3385R2): 6.3 Lbs
Repetition 1 Yield (2.0X Rate, L3385R2): 70.22 Bu/A
Repetition 2 Weight (2.0X Rate, L3385R2): 6.4 Lbs
Repetition 2 Yield (2.0X Rate, L3385R2): 71.64 Bu/A
Average Yield (2.5X Rate, L2711R2X): 63.35 Bu/A
Repetition 1 Weight (2.5X Rate, L2711R2X): 5.7 Lbs
Repetition 1 Yield (2.5X Rate, L2711R2X): 63.87 Bu/A
Repetition 2 Weight (2.5X Rate, L2711R2X): 5.6 Lbs
Repetition 2 Yield (2.5X Rate, L2711R2X): 62.82 Bu/A
Average Yield (2.5X Rate, L3385R2): 71.91 Bu/A
Repetition 1 Weight (2.5X Rate, L3385R2): 6.3 Lbs
Repetition 1 Yield (2.5X Rate, L3385R2): 70.60 Bu/A
Repetition 2 Weight (2.5X Rate, L3385R2): 6.5 Lbs
Repetition 2 Yield (2.5X Rate, L3385R2): 73.23 Bu/A
Average Yield (3.0X Rate, L2711R2X): 63.84 Bu/A
Repetition 1 Weight (3.0X Rate, L2711R2X): 5.5 Lbs
Repetition 1 Yield (3.0X Rate, L2711R2X): 61.50 Bu/A
Repetition 2 Weight (3.0X Rate, L2711R2X): 5.9 Lbs
Repetition 2 Yield (3.0X Rate, L2711R2X): 66.19 Bu/A
Average Yield (3.0X Rate, L3385R2): 71.91 Bu/A
Repetition 1 Weight (3.0X Rate, L3385R2): 6.6 Lbs
Repetition 1 Yield (3.0X Rate, L3385R2): 74.12 Bu/A
Repetition 2 Weight (3.0X Rate, L3385R2): 6.2 Lbs
Repetition 2 Yield (3.0X Rate, L3385R2): 69.70 Bu/A
Repetition 1 Weight (3.5X Rate, L2711R2X): 5.7 Lbs
Repetition 1 Yield (3.5X Rate, L2711R2X): 63.74 Bu/A
Average Yield (3.5X Rate, L2711R2X, repetition 1 only): 63.74 Bu/A
Repetition 1 Weight (3.5X Rate, L3385R2): 6.3 Lbs
Repetition 1 Yield (3.5X Rate, L3385R2): 68.94 Bu/A
Average Yield (3.5X Rate, L3385R2, repetition 1 only): 68.94 Bu/A
Repetition 1 Weight (4.0X Rate, L2711R2X): 6.1 Lbs
Repetition 1 Yield (4.0X Rate, L2711R2X): 68.28 Bu/A
Average Yield (4.0X Rate, L2711R2X, repetition 1 only): 68.28 Bu/A
Repetition 1 Weight (4.0X Rate, L3385R2): 6.7 Lbs
Repetition 1 Yield (4.0X Rate, L3385R2): 74.76 Bu/A
Average Yield (4.0X Rate, L3385R2, repetition 1 only): 74.76 Bu/A
Repetition 1 Weight (4.5X Rate, L2711R2X): 6.3 Lbs
Repetition 1 Yield (4.5X Rate, L2711R2X): 70.60 Bu/A
Average Yield (4.5X Rate, L2711R2X, repetition 1 only): 70.60 Bu/A
Repetition 1 Weight (4.5X Rate, L3385R2): 6.6 Lbs
Repetition 1 Yield (4.5X Rate, L3385R2): 72.78 Bu/A
Average Yield (4.5X Rate, L3385R2, repetition 1 only): 72.78 Bu/A
Repetition 1 Weight (5.0X Rate, L2711R2X): 5.9 Lbs
Repetition 1 Yield (5.0X Rate, L2711R2X): 66.11 Bu/A
Average Yield (5.0X Rate, L2711R2X, repetition 1 only): 66.11 Bu/A
Repetition 1 Weight (5.0X Rate, L3385R2): 6.6 Lbs
